How the values were obtained:
Assay in all cases: combination Emax (second highest fraction inhibited in the dose matrix, 72 h); higher = more inhibition; extreme values may be limits of the assay
[1] = system: C3A (Hepatocellular Carcinoma)
In short: (§1)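 Bliss excess equals the observed combination effect minus the expected value EA + EB − EA·EB, where EA and EB are the effects of each agent alone. Combination Emax is the second-highest inhibition within the matrix. Inhibition was scaled from CellTiter-Glo 2.0 luminescence, with 0 set by vehicle wells and 1 by blank wells, after 72 hours of two-drug dosing of cells plated in 1536-well plates.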

[2] = system: CFPAC-1 (Pancreatic Carcinoma)
In short: as §1

[3] = system: G-292-Clone-A141B1 (Osteosarcoma)
In short: as §1

[4] = system: HT-29 (Colorectal Carcinoma)
In short: as §1

IGR-1 (Melanoma) = system: IGR-1 (Melanoma)
In short: as §1

[5] = system: IHH-4 (Thyroid Gland Carcinoma)
In short: as §1

[6] = system: KARPAS-620 (Plasma Cell Myeloma)
In short: as §1

[7] = system: KATOIII (Gastric Carcinoma)
In short: as §1

[8] = system: MDA-MB-231 (Breast Carcinoma)
In short: as §1

[9] = system: NALM-6 (B-Lymphoblastic Leukemia)
In short: as §1

[10] = system: NCI-H1299 (Non-Small Cell Lung Carcinoma)
In short: as §1

[11] = system: NCI-H1694 (Small Cell Lung Carcinoma)
In short: as §1

[12] = system: NCI-H1793 (Lung Adenocarcinoma)
In short: as §1

NCI-H2369 (Mesothelioma) = system: NCI-H2369 (Mesothelioma)
In short: as §1

RH-1 (Ewing's Sarcoma) = system: RH-1 (Ewing's Sarcoma)
In short: as §1

SN12C (Kidney Carcinoma) = system: SN12C (Kidney Carcinoma)
In short: as §1

[13] = system: SNU-C5 (Colorectal Carcinoma)
In short: as §1

[14] = system: SW1088 (Low Grade Glioma)
In short: as §1

[15] = system: SW1783 (Low Grade Glioma)
In short: as §1

[16] = system: SW780 (Bladder Carcinoma)
In short: as §1

| SMILES | combination Emax [1] | combination Emax [2] | combination Emax [3] | combination Emax [4] | combination Emax (IGR-1 (Melanoma)) | combination Emax [5] | combination Emax [6] | combination Emax [7] | combination Emax [8] | combination Emax [9] | combination Emax [10] | combination Emax [11] | combination Emax [12] | combination Emax (NCI-H2369 (Mesothelioma)) | combination Emax (RH-1 (Ewing's Sarcoma)) | combination Emax (SN12C (Kidney Carcinoma)) | combination Emax [13] | combination Emax [14] | combination Emax [15] | combination Emax [16] |
| --- | --- | --- | --- | --- | --- | --- | --- | --- | --- | --- | --- | --- | --- | --- | --- | --- | --- | --- | --- | --- |
| CN(CCO)CC[C@H](CSc1ccccc1)Nc1ccc(S(=O)(=O)NC(=O)c2ccc(N3CCC([C@@H](O)c4ccccc4-c4ccc(Cl)cc4)CC3)cc2)cc1S(=O)(=O)C(F)(F)F [AZD4320] + CCN(CCO)CCCOc1ccc2c(Nc3cc(CC(=O)Nc4cccc(F)c4)[nH]n3)ncnc2c1 [AZD2811] (first compound max 1 µM, 7x7, partner max 1 µM) | 0.22 | 0.115 | 0.578 | 0.232 | 0.926 | 0.282 | 1 | 0.0347 | 0.813 | 0.98 | 0.228 | 0.94 | 0.283 | 0.378 | 0.913 | 0.169 | 0.196 | 0.306 | 0.412 | 0.803 |
| COc1nnc2ccc(N3CCC(c4ccc(OCCN5CCN(C)C(=O)[C@H]5C)cc4)CC3)nn12 [AZD5153] + Cc1c2c(nn1C)CSCc1cc(n(C)n1)CSc1cc(c3ccccc3c1)OCCCc1c(C(=O)O)n(C)c3c-2c(Cl)ccc13 [AZD5991] (first compound max 1 µM, 7x7, partner max 1 µM) | 0.559 | 0.419 | 0.387 | 0.716 | 0.752 | 0.544 | 1 | 0.324 | 0.642 | 0.904 | 0.798 | 0.992 | 0.288 | 0.337 | 0.937 | 0.309 | 0.56 | 0.487 | 0.336 | 0.365 |
| CN(C)CCCOc1ccc(-c2ccc3ncc4c(c3c2)n(C2CCOCC2)c(=O)n4C)cn1 [AZD0156] + C=CCn1c(=O)c2cnc(Nc3ccc(N4CCN(C)CC4)cc3)nc2n1-c1cccc(C(C)(C)O)n1 [AZD1775] (first compound max 1 µM, partner max 1 µM) | 0.524 | 0.473 | 0.197 | 0.83 | 0.223 | 0.821 | 0.511 | 0.213 | 0.374 | 0.906 | 0.742 | 0.367 | 0.387 | 0.207 | 1 | 0.242 | 0.583 | 0.425 | 0.179 | 0.124 |
| COc1cccc(OCCCN)c1-c1cc(Nc2cnc(C#N)cn2)n[nH]1 [Prexasertib] + C=CCn1c(=O)c2cnc(Nc3ccc(N4CCN(C)CC4)cc3)nc2n1-c1cccc(C(C)(C)O)n1 [AZD1775] (first compound max 1 µM, partner max 1 µM) | 0.674 | 0.692 | 0.32 | 0.844 | 0.708 | 0.99 | 0.904 | 0.55 | 0.9 | 0.934 | 0.799 | 0.932 | 0.532 | 0.296 | 1 | 0.608 | 0.886 | 0.848 | 0.549 | 0.303 |
| CS(=O)(=O)CCNCc1ccc(-c2ccc3ncnc(Nc4ccc(OCc5cccc(F)c5)c(Cl)c4)c3c2)o1 [Lapatinib] + C[C@@H](Oc1cc(-c2cnn(C3CCNCC3)c2)cnc1N)c1c(Cl)ccc(F)c1Cl [Crizotinib] (first compound max 10 µM, 7x7, partner max 10 µM) | 0.951 | 0.963 | 0.71 | 0.942 | 0.987 | 0.907 | 0.873 | 0.627 | 0.828 | 0.959 | 0.492 | 0.291 | 0.793 | 0.254 | 0.939 | 0.216 | 0.764 | 0.654 | 0.248 | 0.489 |
| COc1cc2ncnc(Nc3ccc(F)c(Cl)c3)c2cc1OCCCN1CCOCC1 [Gefitinib] + CC(C)n1c(=O)n(C)c2cnc3cc(F)c(-c4ccc(OCCCN5CCCCC5)nc4)cc3c21 [AZD1390] (first compound max 10 µM, 7x7, partner max 0.3 µM) | 0.377 | 0.304 | 0.0339 | 0.315 | 0.635 | 0.0356 | 0.141 | 0.353 | 0.193 | 0.176 | 0.0669 | 0.19 | 0.143 | 0.0747 | 0.188 | 0.21 | 0.0876 | 0.108 | 0.0328 | 0.14 |
| CCN(CCO)CCCOc1ccc2c(Nc3cc(CC(=O)Nc4cccc(F)c4)[nH]n3)ncnc2c1 [AZD2811] + C=CCn1c(=O)c2cnc(Nc3ccc(N4CCN(C)CC4)cc3)nc2n1-c1cccc(C(C)(C)O)n1 [AZD1775] (first compound max 1 µM, partner max 1 µM) | 0.421 | 0.372 | 0.152 | 0.82 | 0.314 | 0.667 | 0.327 | 0.221 | 0.394 | 0.915 | 0.763 | 0.374 | 0.359 | 0.151 | 1 | 0.175 | 0.59 | 0.47 | 0.193 | 0.186 |
| CCN(CCO)CCCOc1ccc2c(Nc3cc(CC(=O)Nc4cccc(F)c4)[nH]n3)ncnc2c1 [AZD2811] + C[C@@H]1COCCN1C2=NC(=NC(=C2)C3(CC3)[S@](=N)(=O)C)C4=C5C=CNC5=NC=C4 [AZD6738] (first compound max 1 µM, 7x7, partner max 10 µM) | 0.464 | 0.399 | 0.263 | 0.829 | 0.374 | 0.763 | 0.59 | 0.424 | 0.667 | 0.957 | 0.642 | 0.73 | 0.327 | 0.178 | 1 | 0.212 | 0.755 | 0.566 | 0.321 | 0.334 |
| Cc1cc2ncnn2cc1Nc1ncc2c(n1)n(C1CCOCC1)c(=O)n2C [AZD7648] + O=C(c1cc(Cc2n[nH]c(=O)c3ccccc23)ccc1F)N1CCN(C(=O)C2CC2)CC1 [Olaparib] (first compound max 10 µM, 7x7, partner max 10 µM) | 0.232 | 0.197 | 0.121 | 0.0989 | 0.164 | 0.219 | 0.394 | 0.145 | 0.266 | 0.513 | 0.249 | 0.152 | 0.371 | 0.0731 | 0.23 | 0.138 | 0.24 | 0.303 | 0.14 | 0.165 |
| CN(CCO)CC[C@H](CSc1ccccc1)Nc1ccc(S(=O)(=O)NC(=O)c2ccc(N3CCC([C@@H](O)c4ccccc4-c4ccc(Cl)cc4)CC3)cc2)cc1S(=O)(=O)C(F)(F)F [AZD4320] + Cn1cnc2c(F)c(Nc3ccc(Br)cc3Cl)c(C(=O)NOCCO)cc21 [Selumetinib] (first compound max 1 µM, 7x7, partner max 3 µM) | 0.847 | 0.472 | 0.564 | 0.695 | 0.986 | 0.58 | 1 | 0.29 | 0.832 | 0.982 | 0.3 | 0.957 | 0.248 | 0.435 | 0.854 | 0.337 | 0.656 | 0.289 | 0.706 | 0.78 |
| COc1nnc2ccc(N3CCC(c4ccc(OCCN5CCN(C)C(=O)[C@H]5C)cc4)CC3)nn12 [AZD5153] + Cn1cnc2c(F)c(Nc3ccc(Br)cc3Cl)c(C(=O)NOCCO)cc21 [Selumetinib] (first compound max 1 µM, 7x7, partner max 10 µM) | 0.777 | 0.584 | 0.317 | 0.848 | 0.938 | 0.662 | 0.99 | 0.424 | 0.73 | 0.886 | 0.729 | 0.234 | 0.373 | 0.368 | 0.315 | 0.277 | 0.619 | 0.513 | 0.246 | 0.537 |
| NC1(C(=O)N[C@@H](CCO)c2ccc(Cl)cc2)CCN(c2ncnc3[nH]ccc23)CC1 [Capivasertib] + CCN(CCO)CCCOc1ccc2c(Nc3cc(CC(=O)Nc4cccc(F)c4)[nH]n3)ncnc2c1 [AZD2811] (first compound max 10 µM, 7x7, partner max 1 µM) | 0.307 | 0.319 | 0.245 | 0.427 | 0.465 | 0.618 | 0.798 | 0.295 | 0.349 | 0.907 | 0.364 | 0.508 | 0.289 | 0.231 | 0.981 | 0.27 | 0.501 | 0.642 | 0.469 | 0.28 |
| CC1(C)CCC(CN2CCN(c3ccc(C(=O)NS(=O)(=O)c4ccc(NCC5CCOCC5)c([N+](=O)[O-])c4)c(Oc4cnc5[nH]ccc5c4)c3)CC2)=C(c2ccc(Cl)cc2)C1 [Venetoclax] + C[C@@H](Nc1cc(F)cc(F)c1)c1cc(C(=O)N(C)C)cc2c(=O)cc(N3CCOCC3)oc12 [AZD8186] (first compound max 1 µM, 7x7, partner max 3 µM) | 0.296 | 0.255 | 0.296 | 0.132 | 0.0327 | 0.22 | 1 | 0.142 | 0.137 | 0.866 | 0.149 | 0.376 | 0.221 | 0.107 | 0.0877 | 0.174 | 0.166 | 0.493 | 0.336 | 0.163 |

Reference: the supplement of paper PMC11061612
